Measured values: patent US8557552B2, “Selective neuronal nitric oxide synthase inhibitors” (Northwestern University, priority 2011, dated 2013)

Tests used:
Type in all cases: biochemical
bovine eNOS = bovine eNOS (Bos taurus, UniProt P29473); experiment: NOS enzyme inhibition assay, eNOS; conditions: for Ki: bovine eNOS; for Selectivity n/e: ratio Ki eNOS to Ki nNOS
rat nNOS = rat nNOS (Rattus norvegicus, UniProt P29476); experiment: NOS enzyme inhibition assay, nNOS; conditions: for Ki: rat nNOS
Chain of rat nNOS (P29476 whole entry): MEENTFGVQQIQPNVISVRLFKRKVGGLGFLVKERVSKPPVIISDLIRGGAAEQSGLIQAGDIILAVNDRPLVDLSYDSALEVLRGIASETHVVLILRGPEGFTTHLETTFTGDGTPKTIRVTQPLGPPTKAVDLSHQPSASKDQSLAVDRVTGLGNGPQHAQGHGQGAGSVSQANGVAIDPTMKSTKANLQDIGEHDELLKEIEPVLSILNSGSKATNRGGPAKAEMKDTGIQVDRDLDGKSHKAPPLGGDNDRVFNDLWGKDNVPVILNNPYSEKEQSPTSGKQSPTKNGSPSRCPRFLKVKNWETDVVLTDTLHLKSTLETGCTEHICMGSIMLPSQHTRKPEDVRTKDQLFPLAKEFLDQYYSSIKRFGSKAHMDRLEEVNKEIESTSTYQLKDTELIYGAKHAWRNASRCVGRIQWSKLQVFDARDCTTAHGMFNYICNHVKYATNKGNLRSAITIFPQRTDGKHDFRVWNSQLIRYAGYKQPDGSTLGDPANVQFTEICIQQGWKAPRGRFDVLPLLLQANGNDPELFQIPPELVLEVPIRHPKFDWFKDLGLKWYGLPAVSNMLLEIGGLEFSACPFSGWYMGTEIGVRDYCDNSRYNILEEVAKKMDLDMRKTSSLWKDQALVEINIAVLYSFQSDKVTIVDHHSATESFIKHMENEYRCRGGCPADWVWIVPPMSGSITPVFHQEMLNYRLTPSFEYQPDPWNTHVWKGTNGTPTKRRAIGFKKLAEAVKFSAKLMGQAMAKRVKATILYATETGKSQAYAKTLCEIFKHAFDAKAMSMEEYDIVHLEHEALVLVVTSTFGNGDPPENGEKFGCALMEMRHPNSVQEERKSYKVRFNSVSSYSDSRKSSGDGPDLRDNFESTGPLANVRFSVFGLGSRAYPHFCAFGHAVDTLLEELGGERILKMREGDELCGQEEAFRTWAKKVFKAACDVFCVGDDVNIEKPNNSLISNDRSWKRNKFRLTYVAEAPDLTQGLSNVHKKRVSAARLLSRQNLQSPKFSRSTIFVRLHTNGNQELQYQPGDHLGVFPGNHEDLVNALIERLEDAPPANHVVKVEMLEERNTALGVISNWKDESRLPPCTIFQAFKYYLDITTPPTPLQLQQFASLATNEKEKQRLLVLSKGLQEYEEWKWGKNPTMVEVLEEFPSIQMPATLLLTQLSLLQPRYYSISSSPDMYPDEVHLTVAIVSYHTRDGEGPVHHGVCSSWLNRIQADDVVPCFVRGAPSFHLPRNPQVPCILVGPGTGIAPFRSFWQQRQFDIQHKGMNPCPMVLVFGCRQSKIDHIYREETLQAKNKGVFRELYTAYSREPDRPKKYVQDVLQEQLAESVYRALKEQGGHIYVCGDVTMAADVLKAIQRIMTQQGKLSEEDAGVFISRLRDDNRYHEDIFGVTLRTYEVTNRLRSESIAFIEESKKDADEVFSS

murine iNOS = murine iNOS (Mus musculus, UniProt P29477); experiment: NOS enzyme inhibition assay, iNOS; conditions: for Selectivity n/i: ratio Ki iNOS to Ki nNOS
[1] = KM 1.7 μM, Ki = IC50/(1 + [S]/KM), Table 2
[2] = KM 1.3 μM, Ki = IC50/(1 + [S]/KM), Table 2
[3] = murine iNOS, KM 8.2 μM, Ki = IC50/(1 + [S]/KM), Table 2

Chain of bovine eNOS (P29473 whole entry): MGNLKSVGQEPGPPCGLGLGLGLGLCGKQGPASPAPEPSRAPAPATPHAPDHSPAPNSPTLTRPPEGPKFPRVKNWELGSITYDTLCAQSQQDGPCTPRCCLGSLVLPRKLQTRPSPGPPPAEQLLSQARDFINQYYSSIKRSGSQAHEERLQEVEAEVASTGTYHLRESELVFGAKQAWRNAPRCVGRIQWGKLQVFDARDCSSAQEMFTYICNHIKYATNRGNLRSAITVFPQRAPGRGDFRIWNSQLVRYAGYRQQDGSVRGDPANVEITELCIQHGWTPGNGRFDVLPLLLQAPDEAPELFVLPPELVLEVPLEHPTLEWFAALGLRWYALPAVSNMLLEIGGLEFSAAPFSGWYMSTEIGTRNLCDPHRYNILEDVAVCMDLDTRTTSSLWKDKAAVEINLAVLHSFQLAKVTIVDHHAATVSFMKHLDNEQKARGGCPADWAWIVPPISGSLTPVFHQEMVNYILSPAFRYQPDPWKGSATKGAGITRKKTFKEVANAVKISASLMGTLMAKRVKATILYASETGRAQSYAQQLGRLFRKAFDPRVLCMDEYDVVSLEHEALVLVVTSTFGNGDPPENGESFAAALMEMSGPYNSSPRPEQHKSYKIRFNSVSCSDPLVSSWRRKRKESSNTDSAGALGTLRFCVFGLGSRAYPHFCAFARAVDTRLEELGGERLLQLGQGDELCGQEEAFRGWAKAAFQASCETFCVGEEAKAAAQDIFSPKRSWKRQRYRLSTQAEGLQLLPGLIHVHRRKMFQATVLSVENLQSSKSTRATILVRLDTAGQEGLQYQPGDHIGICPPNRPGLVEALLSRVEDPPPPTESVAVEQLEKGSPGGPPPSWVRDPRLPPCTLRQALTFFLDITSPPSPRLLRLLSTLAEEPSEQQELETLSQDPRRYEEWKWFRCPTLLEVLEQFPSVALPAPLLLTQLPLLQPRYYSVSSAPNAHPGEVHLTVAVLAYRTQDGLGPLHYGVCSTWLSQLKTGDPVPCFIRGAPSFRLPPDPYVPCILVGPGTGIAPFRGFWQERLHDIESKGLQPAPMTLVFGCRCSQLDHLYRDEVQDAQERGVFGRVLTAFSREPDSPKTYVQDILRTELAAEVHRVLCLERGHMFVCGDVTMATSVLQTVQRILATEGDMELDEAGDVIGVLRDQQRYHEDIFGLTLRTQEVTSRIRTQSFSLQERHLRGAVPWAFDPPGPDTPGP

Compound	Ki (bovine eNOS; in vitro, Table 1) [µM]	Selectivity n/e (bovine eNOS; Table 1)	Ki (rat nNOS; in vitro, Table 1) [µM]	Ki (murine iNOS; in vitro, Table 1) [µM]	Selectivity n/i (murine iNOS; Table 1)	n/e, ratio of Ki (eNOS) to nNOS (bovine eNOS; Table 2)	Ki (bovine eNOS; [1]) [µM]	Ki (rat nNOS; [2]) [µM]	n/i, ratio of Ki (iNOS) to nNOS (murine iNOS; Table 2)	Ki (murine iNOS; [3]) [µM]	nNOS selectivity over eNOS compared with Ji19 (bovine eNOS; comment on Table 2)	nNOS potency compared with Ji19 (rat nNOS; comment on Table 2)
Cc1cc(N)nc(C[C@@H]2CNC[C@@H]2OCCCCCc2cc(F)cc(Cl)c2)c1 [HH002, 6-(((3R,4R)-4-((5-(3-chloro-5-fluorophenyl)pentyl)oxy)pyrrolidin-3-yl)methyl)-4-methylpyridin-2-amine]						155	35.6	0.23	461	106		
Cc1cc(N)nc(C[C@@H]2CNC[C@@H]2OCCCCNc2ccccn2)c1.Cl.Cl.Cl [Ji20]						154	1.39	0.009	54	0.491	lower nNOS selectivity over eNOS	higher nNOS potency
Cc1cc(N)nc(C[C@@H]2CNC[C@@H]2OCCCCCc2cccc(F)c2)c1.Cl.Cl [HH001]						37	33.8	0.922	91	83.8		
Cc1cc(N)nc(C[C@@H]2CNC[C@@H]2OCCCCCc2cccc(N)c2)c1 [HH008, 6-(((3R,4R)-4-((5-(3-aminophenyl)pentyl)oxy)pyrrolidin-3-yl)methyl)-4-methylpyridin-2-amine]						1117			619			
COc1ccnc(/C=C/CCO[C@H]2CNC[C@H]2Cc2cc(C)cc(N)n2)c1 [compound 23]	2.22	6.3	0.351	2.48	7.1							
Cc1cc(N)nc(C[C@@H]2CNC[C@@H]2OCCC/C=C/c2cccc(F)c2)c1 [HH003, 6-(((3R,4R)-4-(((E)-5-(3-fluorophenyl)pent-4-en-1-yl)oxy)pyrrolidin-3-yl)methyl)-4-methylpyridin-2-amine]						121	77	0.637	55	35.1		
Cc1ccnc(CCCCO[C@H]2CNC[C@H]2Cc2cc(C)cc(N)n2)c1 [22b]	25.5	23.6	1.08	17.9	16.5							
Cc1cc(N)nc(C[C@H]2CNC[C@H]2OCCCCNc2ccccn2)c1.Cl.Cl.Cl [Ji21]						157	5.67	0.036	27	0.973		
Cc1cc(N)nc(C[C@H]2CNC[C@H]2OCCC/C=C/c2cccc(F)c2)c1.Cl.Cl [HH005]						4	69	15.4	9	134		
COc1ccnc(CCCCO[C@H]2CNC[C@H]2Cc2cc(C)cc(N)n2)c1 [22c]	5.47	31.5	0.174	5.44	31.3							
Cc1cc(N)nc(C[C@@H]2CNC[C@@H]2OCCCCc2ccccn2)c1 [22a]	15.9	6.8	2.34	12.5	5.4							
Cc1cc(N)nc(C[C@H]2CNC[C@H]2OCCCCCc2cccc(F)c2)c1.Cl.Cl [HH004]						4	34	9.06	52	468		

The next lines start with the values.

Ki (bovine eNOS; in vitro, Table 1) [µM]	Selectivity n/e (bovine eNOS; Table 1)	Ki (rat nNOS; in vitro, Table 1) [µM]	Ki (murine iNOS; in vitro, Table 1) [µM]	Selectivity n/i (murine iNOS; Table 1)	n/e, ratio of Ki (eNOS) to nNOS (bovine eNOS; Table 2)	Ki (bovine eNOS; [1]) [µM]	Ki (rat nNOS; [2]) [µM]	n/i, ratio of Ki (iNOS) to nNOS (murine iNOS; Table 2)	Ki (murine iNOS; [3]) [µM]	nNOS selectivity over eNOS compared with Ji19 (bovine eNOS; comment on Table 2)	nNOS potency compared with Ji19 (rat nNOS; comment on Table 2)	Compound
5	3.0	1.67	32.4	19.3								Cc1cc(N)nc(C[C@@H]2CNC[C@@H]2OCCCOc2cc(F)cc(C(F)(F)F)c2)c1 [25c]
10.5	3.1	3.34	18.5	5.5								Cc1cc(N)nc(C[C@@H]2CNC[C@@H]2OCCCOc2ccc(F)c(Cl)c2)c1 [25b]
					37	4.37	0.117	106	12.4			Cc1cc(N)nc(C[C@@H]2CNC[C@@H]2OCCCCOc2cc(F)cc(Cl)c2)c1.Cl.Cl [Ji23]
2.68	5.2	0.516	12.2	23.7								Cc1cc(N)nc(C[C@@H]2CNC[C@@H]2OCCCOc2cc(C(F)(F)F)cc(C(F)(F)F)c2)c1 [25f]
1.38	1.5	0.931	25.6	27.5								Cc1cc(N)nc(C[C@@H]2CNC[C@@H]2OCCCOc2cc(Cl)cc(C(F)(F)F)c2)c1 [25e]
5.06	2.0	2.49	14.6	5.8								Cc1cc(N)nc(C[C@@H]2CNC[C@@H]2OCCCOc2ccc(F)c(C(F)(F)F)c2)c1 [25a]
					122	146	1.2	32	38.1			Cc1cc(N)nc(C[C@@H]2CNC[C@@H]2OCCCCOc2cc(F)cc(F)c2)c1.Cl.Cl [Ji22]
9.02	19.9	0.453	41.1	90.6								Cc1cc(N)nc(C[C@@H]2CNC[C@@H]2OCCCOc2cc(F)cc(Cl)c2)c1 [25d]
